Assays:
[1] = at 20° C.; cited from earlier work
[2] = Zeta potential analysis of mancozeb dispersions with and without polycations (Zetasizer Nano); type: physicochemical
Description: Zeta potential is an indicator for complexation and stability of a dispersion. A zeta potential close to zero between −10 mV and +10 Mv indicates a maximum interaction between polyelectrolytes and MZ. The Zeta potential is the charge that develops at the interface between a solid surface and its liquid medium. Zeta potential values give a value of the net charge (in mV) on particle surfaces.
To a 1 g/l aqueous polycation solution (chitosan (CTS), ϵ-poly-L-lysine or polyallylamine (PAA)), 5, 40, 60, 80 and 120 g/l of MZ powder was added, resulting in ratios 1:5, 1:40, 1:60, 1:80 and 1:120 (based on weigh/weight % of dry material), respectively. Mancozeb added to an aqueous solution served as a control. The dispersions were mixed for 10 min on a vortexing device.
The different polycation-mancozeb incubations were analyzed for the Zeta potential with a Zetasizer Nano (Malvern Instruments. United Kingdom).

For `S=C([S-])NCCNC(=S)[S-].[Mn+2].[Zn]` [Mancozeb, zinc; manganese(2+); N-[2-(sulfidocarbothioylamino)ethyl]carbamodithioate], the solubility [1] is listed as “about 6.2 mg per liter”, the zeta potential ([2]; ratio polycation:mancozeb 1:5) is listed as −18.2 mV and the zeta potential ([2]; ratio polycation:mancozeb 1:40) is listed as −20.6 mV. For the same compound, the zeta potential ([2]; ratio polycation:mancozeb 1:60) was −20.5 mV, the zeta potential ([2]; ratio polycation:mancozeb 1:80) was −18.9 mV and the zeta potential ([2]; ratio polycation:mancozeb 1:120) was −18.3 mV.

— patent US20220217980A1, “DITHIOCARBAMATE FUNGICIDE MACROMOLECULAR COMPLEXES” (Adama Makhteshim Ltd., priority 2019, published 2022)
